Data published in EP0292291B1, “Linear and cyclic analogs of alpha-msh fragments with extraordinary potency” (UNIVERSITY PATENTS, INC., priority 1987, dated 1988).
Where two headings read alike, the source gives them in different places. Non-standard residues stand in square brackets, D forms with d. Residues, ends and D or L forms follow the SMILES beside them. Nle = CCCC[C@H](N)C(=O)O

Assays:
Frog (Rana pipiens) Skin [1] = details: earlier studies, cited from earlier work; for Relative Potency Frog: relative to alpha-MSH = 1.0
[2] = tested on: Lizard (Anolis carolinensis) Skin; details: relative to alpha-MSH = 1.0; earlier studies; cited from earlier work
[3] = tested on: Lizard (Anolis carolinensis) Skin; assay type: cell-based; details: for Biological Potency Lizard: relative to alpha-MSH = 1.0
From the text: (§1) Based upon the structural relationship of alpha-MSH (and its analogues and fragments) to its biological potency, using in vitro a frog skin bioassay system, the active site of alpha-MSH appears to be the common active core sequence suitably modified Ac-Met-Glu-His-Phe-Arg-Trp-Gly-NH₂. This fragment (Alpha-MSH₄₋₁₀) has been synthesized and tested for its melanocyte stimulating activity in frog skin and shown to be a weak agonist when compared to the native hormone. The amino acid exchanges in position 5(Glu) and 10(Gly) have not, previous to the making of the present invention, been investigated. […] The following table summarizes some of these studies.
(§2) The biological potencies of alpha-MSH, the linear, and the cyclic analogues were determined by their ability to stimulate melanosome dispersion in vitro in the frog and lizard bioassays. These in vitro assays provide clear cut dose response curves (between 2.5 x 10⁻¹¹ and 4 x 10⁻¹⁰ M) and can detect minimal concentration of alpha-MSH of about 10⁻¹¹ M. The assays are based upon the centrifugal dispersion of melanosomes (melanin granules) within the dendritic processes of integumental dermal melanophores leading to darkening of the skin. All the test solutions were prepared via serial dilutions from a stock solution (10⁻⁴ M). The frogs (Rans pipiens) used in these evaluations were obtained from Kons Scientific, Germantown, WI, and the lizards (Anolis carolinensis) were from the Snake Farm, La Place, LA.

Frog (Rana pipiens) Skin [4] = assay type: cell-based; details: linear analogues; for Residual Activity Frog: P = prolonged action; for Biological Potency Frog: relative to alpha-MSH = 1.0
From the text: as §1, §2

[5] = linear analogues, P = prolonged action

Ac-[Nle⁴]-alpha-MSH₄₋₁₀NH₂
Relative Potency Frog (Frog (Rana pipiens) Skin [1]): 0.002 | Relative Potency Lizard [2]: 0.06

Ac-[Nle⁴,D-Phe⁷]-alpha-MSH₄₋₁₁NH₂
Relative Potency Frog (Frog (Rana pipiens) Skin [1]): 0.16 | Relative Potency Lizard [2]: 8.0

Ac-[Nle⁴]-alpha-MSH₄₋₁₁NH₂
Relative Potency Frog (Frog (Rana pipiens) Skin [1]): 0.002 | Relative Potency Lizard [2]: 1.0

alpha-melanotropin [alpha-MSH]
Residual Activity Lizard ([3]; cyclic analogues, p = prolonged action): p(-) | Biological Potency Lizard ([3]; cyclic analogues): 1.0 | Residual Activity Lizard [3, 5]: P(-) | Biological Potency Lizard ([3]; linear analogues): 1.0 | Relative Potency Frog (Frog (Rana pipiens) Skin [1]): 1.0 | Relative Potency Lizard [2]: 1.0

Ac-[Nle⁴,D-Phe⁷]-alpha-MSH₄₋₁₀NH₂
Relative Potency Frog (Frog (Rana pipiens) Skin [1]): 0.02 | Relative Potency Lizard [2]: 10.0

CCCC[C@H](NC(C)=O)C(=O)N[C@@H](CCC(=O)O)C(=O)N[C@@H](Cc1c[nH]cn1)C(=O)N[C@H](Cc1ccccc1)C(=O)N[C@@H](CCCNC(=N)N)C(=O)N[C@@H](Cc1c[nH]c2ccccc12)C(=O)N[C@@H](CCCN)C(N)=O [Analogue 8]
Residual Activity Lizard [3, 5]: P(-) | Biological Potency Lizard ([3]; linear analogues): 8.0 | Residual Activity Frog (Frog (Rana pipiens) Skin [4]): P(-) | Biological Potency Frog (Frog (Rana pipiens) Skin [4]): 0.6

CCCC[C@H](NC(=O)[C@H](CO)NC(=O)[C@H](Cc1ccc(O)cc1)NC(=O)[C@H](CO)NC(C)=O)C(=O)N[C@@H](CCC(=O)O)C(=O)N[C@@H](Cc1c[nH]cn1)C(=O)N[C@H](Cc1ccccc1)C(=O)N[C@@H](CCCNC(=N)N)C(=O)N[C@@H](Cc1c[nH]c2ccccc12)C(=O)N[C@@H](CCCCN)C(=O)NCC(=O)N1CCC[C@H]1C(=O)N[C@H](C(N)=O)C(C)C [Analogue 1] (Ac-SYS[Nle]EH[dF]RWKGPV-NH2)
Residual Activity Lizard [3, 5]: P(-) | Biological Potency Lizard ([3]; linear analogues): 8.0 | Residual Activity Frog (Frog (Rana pipiens) Skin [4]): P(+) | Biological Potency Frog (Frog (Rana pipiens) Skin [4]): 6.0

CCCC[C@H](NC(C)=O)C(=O)N[C@@H](CC(=O)O)C(=O)N[C@@H](Cc1c[nH]cn1)C(=O)N[C@H](Cc1ccccc1)C(=O)N[C@@H](CCCNC(=N)N)C(=O)N[C@@H](Cc1c[nH]c2ccccc12)C(=O)N[C@@H](CCN)C(N)=O [Analogue 11]
Residual Activity Lizard [3, 5]: P(-) | Biological Potency Lizard ([3]; linear analogues): 50.0 | Residual Activity Frog (Frog (Rana pipiens) Skin [4]): P(-) | Biological Potency Frog (Frog (Rana pipiens) Skin [4]): 0.9

CCCC[C@H](NC(C)=O)C(=O)N[C@@H](CCC(=O)O)C(=O)N[C@@H](Cc1c[nH]cn1)C(=O)N[C@H](Cc1ccccc1)C(=O)N[C@@H](CCCNC(=N)N)C(=O)N[C@@H](Cc1c[nH]c2ccccc12)C(=O)N[C@@H](CCCCN)C(=O)NCC(=O)N1CCC[C@H]1C(=O)N[C@H](C(N)=O)C(C)C [Analogue 3] (Ac-[Nle]EH[dF]RWKGPV-NH2)
Residual Activity Lizard [3, 5]: P(+) | Biological Potency Lizard ([3]; linear analogues): 8.0 | Residual Activity Frog (Frog (Rana pipiens) Skin [4]): P(+) | Biological Potency Frog (Frog (Rana pipiens) Skin [4]): 0.8

Ac-Met-Glu-His-Phe-Arg-Trp-Gly-NH₂ [Ac-alpha -MSH₄₋₁₀NH₂]
Relative Potency Frog (Frog (Rana pipiens) Skin [1]): 0.0003 | melanocyte stimulating activity in frog skin (Frog (Rana pipiens) Skin [1]; result in words, compared to the native hormone): weak agonist | Relative Potency Lizard [2]: 0.004

Ac-[Nle⁴,D-Phe⁷]-alpha -MSH₁₋₁₃NH₂
Relative Potency Frog (Frog (Rana pipiens) Skin [1]): 60.0 | Relative Potency Lizard [2]: 5.0
